This experiment deals with Human immunodeficiency virus 1. The experiment can be described thus: Inhibition of HIV1 isolate YU2 infected in human TZM-bl cells expressing CD4 and CCR5 assessed as assessed inhibition of viral entry after 24 hrs by luciferase reporter assay. The conditions noted are these: Human immunodeficiency virus 1, isolate YU2, TZM-bl. It is filed as functional, organism-based.

SMILES strings stand for the structures. Numbered stars: 1 amine (or outer) side, 2 acyl side, 3 side chain; on linkers, the order of the positions; unused ones are H or OH. Bridge positions count the residues as written; N and C are the ends. Square brackets hold non-standard residues; d marks the D form. Peptide text beside a SMILES is read from it. * marks the point of attachment. dLeu(3R-OH) = CC(C)[C@@H](O[*:3])[C@@H](N[*:1])C(=O)[*:2]; Gln(3S,4R-Me2) = C[C@H]([C@H](N)C(=O)O)[C@@H](C)C(N)=O; dTyr(βR-OMe) = CO[C@H](c1ccc(O)cc1)[C@@H](N)C(=O)O; Pip(4S-Cl) = O=C(O)[C@@H]1C[C@@H](Cl)CCN1; X1 = CCC(C)/C=C(C)/C=C\C(O)C(C)(O)C(=O)*; Abu(3R-NH2) = C[C@@H](N)[C@H](N)C(=O)O; NMeT = CN[C@H](C(=O)O)[C@@H](C)O

Turning to `CCC(C)/C=C(C)/C=C\C(O)C(C)(O)C(=O)NCC(=O)N[C@H](C(=O)N[C@H](C(=O)N[C@H](C(=O)N[C@H]1C(=O)N[C@H](COC)C(=O)NCC(=O)N[C@@H](C)C(=O)N(C)[C@@H]([C@@H](C)O)C(=O)N[C@H]([C@H](OC)c2ccc(O)cc2)C(=O)N2CC[C@H](Cl)C[C@H]2C(=O)O[C@@H]1C(C)C)[C@@H](C)[C@@H](C)C(N)=O)[C@@H](C)N)[C@@H](C)O` (stereo partly drawn) [MIRABAMIDE C] (X1-GT[Abu(3R-NH2)][Gln(3S,4R-Me2)][dLeu(3R-OH)][dS](Me)GA[NMeT][dTyr(βR-OMe)][Pip(4S-Cl)]; ester 5-C), the IC50 was found to be 123 nM.

A word on the IC50: it is the concentration at which inhibition is half-maximal.

Source of the values: ChEMBL document CHEMBL1687884, “Mirabamides E-H, HIV-inhibitory depsipeptides from the sponge Stelletta clavosa” (J Nat Prod, 2011).
